Laboratory results taken from paper PMC4535766, “Antiprotozoal Activity Profiling of Approved Drugs: A Starting Point toward Drug Repositioning” (PLoS ONE, 2015).
Where a name gives a salt, the structure may show the parent alone. Read-outs that look alike come from different tables or passages of the source.

Experiments:
[1] = Cytotoxicity on macrophages infected with L. donovani; format: cell-based, mouse; settings: mouse
[2] = system: axenic amastigotes of L. donovani, strain MHOM-ET-67/L82; test: In vitro activity against L. donovani axenic amastigotes, serial drug dilution assay; format: cell-based, Leishmania donovani; settings: Leishmania donovani
Description: (§1) Drug stock solutions (10mg/ml) were in DMSO (100%). […] Selectivity index (SI) was calculated as IC50 L6 cells/IC50 parasite.

in vitro = settings: rat
Description: as §1

[3] = system: T. cruzi, strain Tulahuen C4, intracellular amastigotes; test: microbe, parasite or virus in culture; settings: Trypanosoma cruzi, TULAHUEN
Description: as §1

[4] = system: T. b. rhodesiense strain STIB 900, trypomastigotes; test: In vitro activity against T. b. rhodesiense, serial drug dilution assay; settings: for IC50: Trypanosoma brucei; for Activity against T. b. rhodesiense (in words): in vitro
Description: as §1

[5] = system: intracellular amastigotes of L. donovani strain MHOM-ET-67/L82; test: Activity against Leishmania donovani intracellular amastigotes in mouse peritoneal macrophages; settings: Leishmania donovani, Peritoneal macrophage, in Mus musculus
Description: After 24 h 1.2 x 10^5 amastigote L. donovani in 100 μl were added. The amastigotes were taken from an axenic culture grown at pH 5.4. Four hours later, the medium containing free amastigote forms was removed and replaced by fresh medium. The next day the medium was replaced by medium with or without a serial drug dilution of seven 3-fold dilution steps covering a range from 30 to 0.04 μg/ml. Parasite growth in the presence of the drug was compared to control wells. After 96 h of incubation, the medium was removed and the slides fixed with methanol for 10 min followed by staining with a 10% Giemsa solution. Infected and non-infected macrophages were counted for the control cultures and those exposed to the serial drug dilutions. The infection rates were determined. The results were expressed as a percentage reduction in parasite burden compared to control wells, and the IC50 was calculated by linear regression analysis. The collection of mouse peritoneal macrophages was done at the Swiss Tropical and Public Health Institute (Basel) according to the rules and regulations for the protection of animal rights ("Tierschutzverordnung") of the Swiss "Bundesamt für Veterinärwesen".

P. falciparum strain K1 = test: In vitro activity against P. falciparum, serial drug dilution assay; settings: for IC50: Plasmodium falciparum; for selectivity ratio: rat
Description: as §1

[6] = macrophages infected with L. donovani, read-out: IC50 Cytotox. mac.inf.
[7] = axenic amastigotes, strain MHOM-ET-67/L82, means of two independent assays, read-out: IC50 L. don. axen.
[8] = 96 h, read-out: IC50 L. don. intracell
[9] = infected macrophages, read-out: Cytotox. mac.inf. IC50
[10] = L. donovani axenic amastigotes, read-out: L. don. axen. IC50
[11] = L6 cells, IC50 Cytotox. L6, L6 cells, means of two independent assays
[12] = read-out: L. don. intracell IC50
[13] = Selectivity index: IC50 Cytotoxicity L6/ IC50 P. falciparum
[14] = mouse peritoneal macrophages infected with L. donovani, macrophages infected with L. donovani, read-out: IC50 Cytotox. mac.inf.

| Compound | IC50 at 96 h [1, 6] [µM] | IC50 [2, 7] [µM] | IC50 (in vitro; IC50 Cytotox. L6) [µM] | IC50 ([3]; read-out: IC50 T. cruzi) [µM] | IC50 ([4]; read-out: IC50 T. b. rhod.) [µM] | IC50 [5, 8] [µM] | IC50 (P. falciparum strain K1; K1, read-out: IC50 P. falc. K1) [µM] | other results |
| --- | --- | --- | --- | --- | --- | --- | --- | --- |
| Nc1nc(N)c2nc(-c3ccccc3)c(N)nc2n1 [Triamterene] | > 11.8 | 307 | 8.53 | 22.7 | 21.7 | > 11.8 | 17.2 | – |
| Cc1ncc([N+](=O)[O-])n1CCO [Metronidazole] | > 175 | 491 | 339 | 279 | 338 | > 175 | 277 | Activity against T. b. rhodesiense (in words) [4]: inactive |
| CNCCC=C1c2ccccc2CCc2ccccc21 [Nortryptyline] | 38 | > 342 | – | 22.9 | 1.17 | > 11.4 | 0.58 | IC50 (in vitro): 27.9 µM; Selectivity index: IC50 Cytotoxicity L6/ IC50 T. b. rhodesiense ([4]; rat): 24; selectivity ratio ([4]; rat, Selectivity index: IC50 Cytotoxicity L6/ IC50 T. b. rhodesiense): > 20; selectivity ratio (P. falciparum strain K1): 48 |
| CN(C)CCCN1c2ccccc2Sc2ccc(C(F)(F)F)cc21 [Triflupromazine] | – | – | – | – | 1.42 | – | – | MCC at 96 h [1, 9]: 28.4 µM; IC50 [2, 10]: 79.8 µM; IC50 (in vitro; [11]): 18.5 µM; IC50 ([3]; read-out: T. cruzi IC50): 15 µM; selectivity ratio ([4]; rat, L6 cells versus T. b. rhodesiense STIB 900 trypomastigotes): 13; IC50 [5, 12]: > 8.51 µM; IC50 (P. falciparum strain K1; K1, read-out: P. falc. IC50): 2.72 µM |
| COC1=CC(=O)C[C@@H](C)[C@]12Oc1c(Cl)c(OC)cc(OC)c1C2=O [Griseofulvin] | – | – | – | – | – | – | – | IC50 at 96 h [1, 9]: > 85 µM; IC50 [2, 10]: 87 µM; IC50 (in vitro; Cytotox. L6 IC50): 20.5 µM; IC50 ([3]; read-out: T. cruzi IC50): 87.3 µM; IC50 ([4]; read-out: T. b. rhod. IC50): 40 µM; IC50 [5, 12]: > 85 µM; IC50 (P. falciparum strain K1; K1, read-out: P. falc. IC50): 75.1 µM |
| Clc1ccc(C(OCCN2CCCCC2)c2ccccc2)cc1 (stereo not drawn) [Cloperastine] | – | 265 | – | 9.46 | 4.91 | > 30.3 | 0.87 | MCC at 96 h ([1]; mouse peritoneal macrophages infected with L. donovani, read-out: IC50 Cytotox. mac.inf.): 90.9 µM; IC50 (in vitro; [11]): 43.4 µM; Activity against P. falciparum (in words) (P. falciparum strain K1; in vitro): selective activities; selectivity ratio (P. falciparum strain K1; [13]): 50 |
| OC(c1cc(C(F)(F)F)nc2c(C(F)(F)F)cccc12)C1CCCCN1 (stereo not drawn) [Mefloquine (Hydrochloride), Mefloquine] | – | – | 3.25 | – | – | – | 0.002 | MCC at 96 h [1, 9]: 7.23 µM; IC50 [2, 10]: 38.6 µM; IC50 ([3]; read-out: T. cruzi IC50): 4.48 µM; IC50 ([4]; read-out: T. b. rhod. IC50): 0.53 µM; IC50 [5, 12]: 2.41 µM; IC50 (P. falciparum strain K1; K1, read-out: P. falc. IC50): 0.0024 µM; selectivity ratio (P. falciparum strain K1; [13]): 1350 |
| COc1cc(C)c2c(Oc3cccc(C(F)(F)F)c3)c(OC)cc(NC(C)CCCN)c2n1 (stereo not drawn) [Tafenoquine] | – | 17.9 | – | 6.11 | 1.42 | 2.16 | 0.27 | IC50 at 96 h [1, 14]: 6.47 µM; IC50 (in vitro; [11]): 5.52 µM; selectivity ratio (P. falciparum strain K1; [13]): 20 |
| NC(=O)c1cnccn1 [Pyrazinamide] | > 244 | > 812 | 458 | 565 | > 812 | > 244 | 179 | – |
| CC(C)(C)NC(=O)[C@@H]1C[C@@H]2CCCC[C@@H]2CN1C[C@@H](O)[C@H](Cc1ccccc1)NC(=O)[C@H](CC(N)=O)NC(=O)c1ccc2ccccc2n1 [Saquinavir] | > 44.7 | 77.4 | 18.2 | 17.1 | 12.3 | > 44.7 | 11.9 | – |
| Cc1c(O)cccc1C(=O)N[C@@H](CSc1ccccc1)[C@H](O)CN1C[C@H]2CCCC[C@H]2C[C@H]1C(=O)NC(C)(C)C [Nelfinavir] | > 52.8 | 9.62 | 12.1 | 10.2 | 20.6 | 20.2 | 10.4 | – |
| CC(C)CN(C[C@@H](O)[C@H](Cc1ccccc1)NC(=O)O[C@H]1CCOC1)S(=O)(=O)c1ccc(N)cc1 [Amprenavir] | > 59.3 | 113 | – | 105 | 28.5 | > 59.3 | 15.2 | IC50 (in vitro): 160 µM |
| CO[C@H]1/C=C/O[C@@]2(C)Oc3c(C)c(O)c4c(c3C2=O)C2=NC3(CCN(CC(C)C)CC3)NC2=C(NC(=O)/C(C)=C\C=C\[C@H](C)[C@H](O)[C@@H](C)[C@@H](O)[C@@H](C)[C@H](OC(C)=O)[C@@H]1C)C4=O [Rifabutin] | – | – | – | – | – | – | – | IC50 at 96 h [1, 9]: > 35.4 µM; IC50 [2, 10]: 56.4 µM; IC50 (in vitro; Cytotox. L6 IC50): 60.9 µM; IC50 ([3]; read-out: T. cruzi IC50): 27.5 µM; IC50 ([4]; read-out: T. b. rhod. IC50): 12.6 µM; Activity against T. b. rhodesiense (in words) [4]: devoid of antitrypanosomal activity; IC50 [5, 12]: > 35.4 µM; IC50 (P. falciparum strain K1; K1, read-out: P. falc. IC50): 1.59 µM |
| CCc1nc(N)nc(N)c1-c1ccc(Cl)cc1 [Pyrimethamine] | > 12.1 | 278 | 2.51 | 5.71 | 6.75 | > 12.1 | 9.85 | – |
| Nc1nc(O)c2ncn(COC(CO)CO)c2n1 [Ganciclovir] | > 118 | > 392 | 179 | 240 | 252 | > 118 | > 196 | – |
| Cc1oncc1C(=O)Nc1ccc(C(F)(F)F)cc1 [Leflunomide] | > 111 | 21.8 | 124 | 152 | 213 | > 111 | > 18.5 | – |
| CC(C)(C)NC(=O)[C@@H]1CN(Cc2cccnc2)CCN1C[C@@H](O)C[C@@H](Cc1ccccc1)C(=O)N[C@H]1c2ccccc2C[C@H]1O [Indinavir (Sulfate), Indinavir] | > 42.3 | > 141 | – | 93.5 | 48.2 | > 42.3 | 6.03 | IC50 (in vitro): > 141 µM |
| CO[C@H]1/C=C/O[C@@]2(C)Oc3c(C)c(O)c4c(O)c(c5c(nc6cc(C)ccn65)c4c3C2=O)NC(=O)/C(C)=C\C=C\[C@H](C)[C@H](O)[C@@H](C)[C@@H](O)[C@@H](C)[C@H](OC(C)=O)[C@@H]1C [Rifaximin] | – | – | 88 | – | – | – | 0.92 | IC50 at 96 h [1, 9]: > 38.2 µM; IC50 [2, 10]: 15 µM; IC50 ([3]; read-out: T. cruzi IC50): 40.2 µM; IC50 ([4]; read-out: T. b. rhod. IC50): 17.1 µM; Activity against T. b. rhodesiense (in words) [4]: devoid of antitrypanosomal activity; IC50 [5, 12]: > 38.2 µM; selectivity ratio (P. falciparum strain K1; [13]): 96 |
| CN(C)CCCN1c2ccccc2Sc2ccc(Cl)cc21 [Chlorpromazine] | 31.4 | 48.5 | 12.3 | 17.2 | 1.25 | > 9.41 | 3.03 | – |
| Cc1cn([C@H]2C=C[C@@H](CO)O2)c(=O)[nH]c1=O [Stavudine] | – | > 446 | – | 341 | 120 | > 134 | 186 | IC50 at 96 h [1, 14]: > 134 µM; IC50 (in vitro; [11]): 266 µM |
| O=C(O)c1cn(C2CC2)c2cc(N3CCNCC3)c(F)cc2c1=O [Ciprofloxacin] | – | – | – | – | – | – | – | IC50 at 96 h [1, 9]: > 90.5 µM; IC50 [2, 10]: > 302 µM; IC50 (in vitro; Cytotox. L6 IC50): 118 µM; IC50 ([3]; read-out: T. cruzi IC50): 92 µM; IC50 ([4]; read-out: T. b. rhod. IC50): 35.9 µM; IC50 [5, 12]: > 90.5 µM; IC50 (P. falciparum strain K1; K1, read-out: P. falc. IC50): 13.2 µM |
| COC(=O)N[C@H](C(=O)N[C@@H](Cc1ccccc1)[C@@H](O)CN(Cc1ccc(-c2ccccn2)cc1)NC(=O)[C@@H](NC(=O)OC)C(C)(C)C)C(C)(C)C [Atazanavir (Sulfate), Atazanavir] | – | 24.1 | – | 33.3 | 12.7 | > 37.5 | 7.95 | IC50 at 96 h [1, 14]: > 37.5 µM; IC50 (in vitro; [11]): 46.5 µM |
| C[C@H]1c2cccc(O)c2C(=O)C2=C(O)[C@]3(O)C(=O)C(C(N)=O)=C(O)[C@@H](N(C)C)[C@@H]3[C@@H](O)[C@@H]21 [Doxycycline] | – | – | – | – | – | – | – | MCC at 96 h [1, 9]: 67.5 µM; IC50 [2, 10]: 24.1 µM; IC50 (in vitro; Cytotox. L6 IC50): 14.5 µM; IC50 ([3]; read-out: T. cruzi IC50): 39.1 µM; IC50 ([4]; read-out: T. b. rhod. IC50): 63.7 µM; IC50 [5, 12]: > 22.5 µM; IC50 (P. falciparum strain K1; K1, read-out: P. falc. IC50): 4.48 µM |
| CN1CCN(CCCN2c3ccccc3Sc3ccc(C(F)(F)F)cc32)CC1 [Trifluoperazine] | 24.5 | 52.9 | – | 10.1 | 1.23 | > 7.36 | 1.48 | IC50 (in vitro; [11]): 11 µM |
| Fc1ccc([C@@H]2CCNC[C@H]2COc2ccc3c(c2)OCO3)cc1 [Paroxetine] | – | > 273 | 13.8 | 14.4 | 1.13 | > 9.11 | 9.23 | MCC at 96 h [1, 6]: 30.4 µM; selectivity ratio ([4]; rat): 12 |
